According to patent publication US20180369203A1, “METHODS OF TREATING CANCER BY ADMINISTERING A MEK INHIBITOR IN COMBINATION WITH A PROTEASOME INHIBITOR” (The Jackson Laboratory, priority 2015, published 2018):
Like-named read-outs stand apart in the source and are kept apart here. Peptide text beside a SMILES is read from it. * marks the point of attachment. Cbz = O=C(OCc1ccccc1)*

How the values were obtained:
c-MYC, RPL15, RPL3 = experiment: Endogenous c-MYC, RPL15 and RPL3 proteins in A2058 cells; assay type: cell-based, human; conditions: 20 nM AZD6244 co-treated with 500 nM MG132
Protocol: (A) GFP and GFP-GR plasmids were co-transfected into HEK293T cells followed by treatments with 20 nM AZD6244, 20 μM U0126, or 200 nM 17-DMAG for 4 hr. (B) GFP-GR plasmids were co-transfected into HEK293T cells with HA-Ub-K48 plasmids, which encode a mutant ubiquitin that can be conjugated to protein substrates only via lysine 48. Following treatments with 20 nM AZD6244 or 200 nM 17-DMAG for 4 hr, GFP-GR proteins were precipitated and ubiquitination was detected using anti-HA antibodies. (C) Denatured firefly luciferases were incubated with lysates of A2058 cells treated with DMSO or 20 nM AZD6244 (mean±SD, n=4, ANOVA). (D) A2058 cells were treated with 20 nM AZD6244, and ubiquitinated proteins were detected in both detergent-soluble and -insoluble fractions using Lys48-specific ubiquitin antibodies. (E) A2058 cells stably expressing LacZ or HSF1^S326D were treated with 20 nM AZD6244 for 8 hr. (F) C57BL/6J mice were i.p. injected with DMSO or AZD6244 three times a week for 2 weeks. S: spleen; K: kidney; L: liver. (G) Experimental procedures of MS-based quantitation of ubiquitinated peptides, two technical replicates per treatment. […] (Q) Endogenous RPL15 and RPL3 proteins were detected in A2058 cells treated with 20 nM AZD6244 alone or co-treated with 500 nM MG132. (R) Endogenous RPL15 and RPL3 proteins were detected in A2058 cells stably expressing LacZ or HSF1^S326D with AZD6244 treatment. […]

[1] = system: V5-TOR1AIP2, V5-RPL3, V5-RPL15; experiment: Levels and ubiquitination of V5-tagged proteins in HEK293T cells; assay type: cell-based; conditions: 500 nM MG132 co-treated with 20 nM AZD6244, 8 hr
HSF1 [2] = experiment: Dual HSF1 reporter assay (HSE-SEAP / CMV-GLuc) in HEK293T cells; assay type: cell-based; conditions: 20 μM U0126, 20 nM AZD6244, 1 μM FR180204 or 100 nM Sch772984
Protocol: (A) NIH3T3 cells were treated with HS at 43° C. for 30 min, 10 μM tubastatin A for 5 hr, 40 μM VER155008 for 1 hr, 500 nM MG132 for 1 hr, 200 nM 17-DMAG for 1 hr, and 2.5 mM azetidine for 15 min (B) The dual ELK1 reporter system, comprising a serum response element (SRE)-driven secreted embryonic alkaline phosphatase (SEAP) plasmid and a CMV-driven Gaussia luciferase (GLuc) plasmid, was transfected into HEK293T cells. After 24 hr, cells were treatments as in (A) and recovered overnight before measuring reporter activities (mean±SD, n=6, ANOVA). (C and D) NIH3T3 cells were treated with 20 μM U0126 or 20 nM AZD6244 for 3 hr followed by HS and 4-hr recovery. mRNA levels were quantitated by qRT-PCR (mean±SD, n=3, Student's t-test). (E) Immediately after HS, nuclear proteins of NIH3T3 cells treated as in (C) were extracted to measure HSF1-DNA binding by an ELISA-based assay (mean±SD, n=3, ANOVA). (F) HEK293T cells were transfected with dual HSF1 reporter plasmids, a heat-shock element (HSE)-driven SEAP plasmid and a CMV-GLuc plasmid. […] (G) HEK293T cells were treated with different inhibitors overnight. […] After 24 hr, cells were heat shocked at 43° C. for 30 min followed by overnight recovery (mean±SD, n=3, ANOVA). […]
FIGS. 8A-H illustrate that MEK and ERK inversely regulate the PSR. […] Cell viability was measured by a Guava EasyCyte™ flow cytometer using Guava ViaCount™ reagents (mean±SD, n=5, Student's t test). […] Levels of ERK1 and ERK2 mRNAs were quantitated in HEK293T cells transfected with ERK1-targeting siRNAs by qRT-PCR (mean±SD, n=3, ANOVA). […] Levels of ERK2 and ERK1 mRNAs were quantitated in HEK293T cells transfected with ERK2-targeting siRNAs by qRT-PCR (mean±SD, n=3, ANOVA).
Plasmids were transfected with TurboFect transfection reagent (Thermo Scientific). SEAP and luciferase activities in culture supernatants were quantitated using a Ziva® Ultra SEAP Plus Detection Kit (Jaden BioScience) and a Gaussia Luciferase Glow Assay Kit (Thermo Scientific), respectively. Luminescence signals were measured by a VICTORS Multilabel plate reader (PerkinElmer).

HSF1 Ser326 [3] = conditions: NIH3T3; 20 μM U0126 for 3 hrs, then heat shock 43° C. 30 mins
Protocol: NIH3T3 cells were treated with 20 μM U0126 for 3 hrs followed by heat shock at 43° C. for 30 mins HSF1 Ser326 phosphorylation was detected by immunoblotting.
Whole-cell protein extracts were prepared in cold cell-lysis buffer (100 mM NaCl, 30 mM Tris-HCl pH 7.6, 1% Triton X-100, 30 mM NaF, 1 mM EDTA, 1 mM sodium orthovanadate, and Halt™ protease inhibitor cocktail from Thermo Scientific). Proteins were separated on SDS-PAGE gels and transferred to nitrocellulose membranes. Primary antibodies were applied in wash buffer overnight at 4° C. Peroxidase-conjugated secondary antibodies were applied at room temperature for 1 hr, and signals were visualized by SuperSignal West chemiluminescent substrate (Thermo Fisher Scientific), followed by exposure to films.

MEK1 = MEK1 (Homo sapiens, UniProt Q02750); conditions: 100 ng GST-MEK1, 400 ng His-HSF1, RT
Chain of MEK1 (Q02750 whole entry): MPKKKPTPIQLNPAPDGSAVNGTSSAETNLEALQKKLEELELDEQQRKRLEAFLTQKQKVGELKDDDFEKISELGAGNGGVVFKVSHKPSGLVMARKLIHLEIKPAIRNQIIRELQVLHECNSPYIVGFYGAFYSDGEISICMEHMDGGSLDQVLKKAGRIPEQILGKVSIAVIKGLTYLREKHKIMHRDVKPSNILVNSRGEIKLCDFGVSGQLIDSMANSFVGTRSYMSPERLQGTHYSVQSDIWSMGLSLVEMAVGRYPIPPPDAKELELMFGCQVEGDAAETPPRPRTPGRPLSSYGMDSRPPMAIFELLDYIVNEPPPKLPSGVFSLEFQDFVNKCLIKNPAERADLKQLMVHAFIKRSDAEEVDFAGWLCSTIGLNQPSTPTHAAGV
Protocol: (§1) Co-expressed GFP proteins served as internal controls. […] See also FIG. 10.
(§2) Samples were boiled for 5 min to stop reactions.

Hsp genes = experiment: qRT-PCR of heat-shock-induced Hsp mRNA in NIH3T3 cells; assay type: cell-based, mouse; conditions: 20 μM U0126 or 20 nM AZD6244 for 3 hr, then HS and 4-hr recovery
Protocol: (A) NIH3T3 cells were treated with HS at 43° C. for 30 min, 10 μM tubastatin A for 5 hr, 40 μM VER155008 for 1 hr, 500 nM MG132 for 1 hr, 200 nM 17-DMAG for 1 hr, and 2.5 mM azetidine for 15 min (B) The dual ELK1 reporter system, comprising a serum response element (SRE)-driven secreted embryonic alkaline phosphatase (SEAP) plasmid and a CMV-driven Gaussia luciferase (GLuc) plasmid, was transfected into HEK293T cells. After 24 hr, cells were treatments as in (A) and recovered overnight before measuring reporter activities (mean±SD, n=6, ANOVA). (C and D) NIH3T3 cells were treated with 20 μM U0126 or 20 nM AZD6244 for 3 hr followed by HS and 4-hr recovery. mRNA levels were quantitated by qRT-PCR (mean±SD, n=3, Student's t-test). (E) Immediately after HS, nuclear proteins of NIH3T3 cells treated as in (C) were extracted to measure HSF1-DNA binding by an ELISA-based assay (mean±SD, n=3, ANOVA). […]
Total RNAs were extracted using RNA STAT-60 reagent (Tel-Test, Inc.), and RNAs were used for reverse transcription using a Verso cDNA Synthesis kit (Thermo Fisher Scientific). Equal amounts of cDNA were used for quantitative PCR reaction using a DyNAmo SYBR Green qPCR kit (Thermo Fisher Scientific). Signals were detected by an ABI 7500 Real-Time PCR System (Applied Biosystems). […]

HSF1 Ser326 [4] = experiment: HSF1 Ser326 phosphorylation by immunoblotting in HEK293T cells; assay type: cell-based; conditions: overnight, 20 μM U0126, 20 nM AZD6244, 1 μM FR180204 or 100 nM Sch772984
Protocol: This figure is related to FIG. 3. (A) Validation of phospho-HSF1 Ser326 antibodies. […] (B) MEK blockade impairs HSF1 Ser326 phosphorylation. […] (D-E) S326A mutation impairs HSF1 nuclear translocation. […] (F) Acute MEK depletion diminishes HSF1 proteins. […] HSF1 proteins were detected by immunoblotting. (G) ERK-mediated HSF1 Ser307 phosphorylation depends on MEK. […] Levels of phosphor-HSF1 Ser307 were measured by immunoblotting. (H) HSF1 Ser326 phosphorylation inhibits Ser307 phosphorylation.

[5] = system: ERK complexes precipitated from HEK293T cells; experiment: In vitro kinase assay with immunoprecipitated ERK complexes; assay type: biochemical
Protocol: as §1, §2

HSF1 [6] = experiment: ELISA-based HSF1-DNA binding assay, NIH3T3 nuclear proteins; assay type: cell-based, mouse; conditions: NIH3T3, immediately after HS; 20 μM U0126 or 20 nM AZD6244 for 3 hr
Protocol: (A) NIH3T3 cells were treated with HS at 43° C. for 30 min, 10 μM tubastatin A for 5 hr, 40 μM VER155008 for 1 hr, 500 nM MG132 for 1 hr, 200 nM 17-DMAG for 1 hr, and 2.5 mM azetidine for 15 min (B) The dual ELK1 reporter system, comprising a serum response element (SRE)-driven secreted embryonic alkaline phosphatase (SEAP) plasmid and a CMV-driven Gaussia luciferase (GLuc) plasmid, was transfected into HEK293T cells. After 24 hr, cells were treatments as in (A) and recovered overnight before measuring reporter activities (mean±SD, n=6, ANOVA). (C and D) NIH3T3 cells were treated with 20 μM U0126 or 20 nM AZD6244 for 3 hr followed by HS and 4-hr recovery. mRNA levels were quantitated by qRT-PCR (mean±SD, n=3, Student's t-test). (E) Immediately after HS, nuclear proteins of NIH3T3 cells treated as in (C) were extracted to measure HSF1-DNA binding by an ELISA-based assay (mean±SD, n=3, ANOVA). (F) HEK293T cells were transfected with dual HSF1 reporter plasmids, a heat-shock element (HSE)-driven SEAP plasmid and a CMV-GLuc plasmid. […] (G) HEK293T cells were treated with different inhibitors overnight. […] After 24 hr, cells were heat shocked at 43° C. for 30 min followed by overnight recovery (mean±SD, n=3, ANOVA). (L)-(O) HEK293T cells were transfected with siRNAs for 48 hr followed by transfection with dual HSF1 reporter plasmids for 24 hr before HS (mean±SD, n=6, ANOVA). […]

Row | Structure (SMILES) | depletions of endogenous RPL15 and RPL3 by AZD6244 (c-MYC, RPL15, RPL3) | V5-RPL15 depletion by AZD6244 [1] | transcriptional activation of HSF1 (HSF1 [2]) | HSF1 Ser326 phosphorylation (HSF1 Ser326 [3]) | HSF1 Ser326 phosphorylation by recombinant MEK1 (MEK1) | HS-induced transcription of Hsp genes (Hsp genes) | HSF1 Ser326 phosphorylation (HSF1 Ser326 [4]) | phosphorylation of recombinant ERK1 proteins by precipitated ERK complexes ([5]; 400 ng GST-ERK1) | HSF1 Ser326 phosphorylation by precipitated ERK complexes ([5]; 400 ng His-HSF1) | DNA-binding capacity of HSF1 (HSF1 [6])
1 | CC(C)C[C@@H](C=O)NC(=O)[C@H](CC(C)C)NC(=O)[C@H](CC(C)C)NC(=O)OCc1ccccc1 [MG132] (Cbz-Leu-Leu-Leu-aldehyde) | prevented | prevented |  |  |  |  |  |  |  | 
2 | N#CC(=C(/N)Sc1ccccc1N)/C(C#N)=C(\N)Sc1ccccc1N [U0126] |  |  | impaired | impaired | blocked | impeded | impairs | blocked | blocked | impaired
